From PMC5915154, “Aloe-emodin as drug candidate for cancer therapy” (Oncotarget, 2018) come the findings set out here.

For test [1], the system named is MDA-MB-231-BCRP clone 23 cells. In words: Resazurin reduction assay, MDA-MB-231-BCRP clone 23. The class given is cell-based. To be noted: Homo sapiens; MDA-MB-231-BCRP clone 23, resazurin assay, 72 h. The source says: (§1) The cell lines used in the present work, their origins and maintenance conditions were previously reported. In brief, drug-sensitive CCRF-CEM and multidrug resistant P-glycoprotein-over-expressing CEM/ADR5000 leukemia cells, MDA-MB-231-pcDNA3 breast cancer cells and their transfectant subline MDA-MB-231-BCRP clone 23, HCT116 (p53^+/+) colon cancer cells and its knockout clone HCT116 (p53^-/-), U87.MG glioblastoma multiform cells and their transfectant subline U87.MGΔEGFR as well as HEK293 human embryonic kidney cells transfected with or without a cDNA for ABCB5 were used. The human peripheral mononuclear cells (PMNC) were isolated from fresh blood samples of a healthy donor by using Histopaque® (Sigma-Aldrich, Taufkirchen, Germany).
(§2) Resazurin reduction assay was conducted to test the cytotoxicity of the compounds. This assay is based on the reduction of resazurin to resorufin by viable cells. […] Briefly, aliquots of 0.5×10^4 adherent cells which were allowed to attach overnight and 1×10^4 suspension cells per well were seeded in 96-well-plates with or without the addition of varying concentrations of the test substance to get a total volume of 200 μL/well. After 72 h incubation and addition of resazurin (Sigma-Aldrich) for 4 h, staining was measured by an Infinite M2000 ProTM plate reader (Tecan, Germany) using an excitation wavelength of 544 nm and an emission wavelength of 590 nm. […]

Test [2] concerns HEK293 human embryonic kidney cells. In words: Resazurin reduction assay, HEK293. The class given is cell-based. The following applies: 72 h.
Text: as §1, §2
A general note: Resazurin is reduced to fluorescent resorufin, in cell work by metabolically active cells.

Test [3] concerns drug-sensitive wild-type cell lines. In words: Resazurin reduction assay, range over drug-sensitive wild-type cell lines. The class given is cell-based. To be noted: Homo sapiens.
Text: as §1, §2

For the next test, the system named is drug-resistant sublines. In words: Resazurin reduction assay, range over drug-resistant and/or transfected sublines. It counts as cell-based. To be noted: Homo sapiens.
Text: as §1, §2

Test [4] deals with CCRF-CEM cells. Briefly: Detection of reactive oxygen species (H2DCFH-DA, flow cytometry). It counts as cell-based, human. As for the experimental part:
2′,7′-Dichlorofluorescin diacetate (H2DCFH-DA, Sigma-Aldrich) is a cell-permeable non-fluorescent probe used to detect cellular ROS levels. In the presence of ROS, the compound is de-esterified intracellularly and converts into the highly fluorescent 2′,7′-dichlorofluorescein upon oxidation. Thus, it can be measured by flow cytometry. CCRF-CEM cells were re-suspended in PBS and incubated for 30 min withH2DCFH-DA at a concentration of 2 μM. After washing with PBS, the cells were treated with DMSO as negative control, H2O2 and doxorubicin as positive controls or varying concentrations of Aloe-emodin (0.5-, 1-, 2- and 4-fold IC50) for 1 h. The results were assessed by a BD Accuri™ C6 flow cytometer (Becton Dickinson) using FL-1 the channel (488 nm excitation). For each sample, 10^4 cells were counted. The protocol has been recently reported by us.
A general note: A flow cytometer gives signals particle by particle.

The subject of test [5] is HCT116 (p53-/-) knockout colon cancer cells. In words: Resazurin reduction assay, HCT116 (p53-/-). It counts as cell-based, human.
Text: as §1, §2

The test system of test [6] is drug-sensitive CCRF-CEM leukemia cells. Briefly: Resazurin reduction assay, CCRF-CEM. The following applies: Homo sapiens, 72 h. It counts as cell-based.
Text: as §1
(§3) Resazurin reduction assay was conducted to test the cytotoxicity of the compounds. This assay is based on the reduction of resazurin to resorufin by viable cells. […] Briefly, aliquots of 0.5×10^4 adherent cells which were allowed to attach overnight and 1×10^4 suspension cells per well were seeded in 96-well-plates with or without the addition of varying concentrations of the test substance to get a total volume of 200 μL/well. After 72 h incubation and addition of resazurin (Sigma-Aldrich) for 4 h, staining was measured by an Infinite M2000 ProTM plate reader (Tecan, Germany) using an excitation wavelength of 544 nm and an emission wavelength of 590 nm. Each assay was independently performed for at least three times, with six parallel replicates each. The protocol has been recently reported. Fifty percent inhibition concentrations (IC50) represent the drug concentrations required to inhibit 50% of cell proliferation, which were fitted with nonlinear regression using GraphPad® Prism7.

Test [7] relates to U87.MG glioblastoma cells. In words: Resazurin reduction assay, U87.MG. The following applies: Homo sapiens, U-87 MG, 72 h. It counts as cell-based.
Text: as §1, §2

The test system of a further test is U87.MGΔEGFR cells. In words: Resazurin reduction assay, U87.MGΔEGFR. It counts as cell-based. The following applies: Homo sapiens, 72 h.
Text: as §1, §2

For test [8], the system named is CCRF-CEM cells. Briefly: Annexin V/PI detection of apoptosis and necrosis. The class given is cell-based, human. The text has this: A commercial annexin V/PI detection apoptosis kit was used to detect early apoptosis and necrosis according to the manufacturer’s instructions (Life Technologies, Carlsbad, CA, USA). Annexin V is a calcium-dependent phospholipid-binding protein, which binds to phosphatidylserine (PS). PS is predominantly located at the inner side of the plasma membrane under normal conditions and moves to outer surface of the membrane upon the onset of early apoptosis. This can be detected FITC-labeled annexin V. PI is a marker of late apoptosis and necrosis. We treated aliquots of 1×10^6 CCRF-CEM cells with 0.5-, 1-, 2- and 4-fold IC50 of Aloe-emodin for 48, 72 or 96 h, respectively. After washing the cells with PBS, they were stained with annexin V/FITC at room temperature for 10-15 min. Subsequently, cells were washed again and stained with PI in the dark. Then, the results were analyzed by a BD Accuri™ C6 flow cytometer at excitation wavelength 488 nm and emission wavelength 530 nm to record annexin V/FITC signals. The fluorescence of PI was detected at 488 nm excitation and was measured by a 610/20 nm band pass filter. At least three independent experiments were performed..

The test system of test [9] is multidrug-resistant P-glycoprotein-overexpressing CEM/ADR5000 leukemia cells. In words: Resazurin reduction assay, CEM/ADR5000. The class given is cell-based, human. The following applies: Homo sapiens; CEM/ADR5000, resazurin assay, 72 h.
Text: as §1, §3

The structures appear in SMILES notation.

Usually IC50 stands for the concentration that gives 50% inhibition. A lower IC50 goes with inhibition by little substance. Consider `O=C1c2cccc(O)c2C(=O)c2c(O)cc(CO)cc21` [Aloe-emodin], for which the IC50 in test [1] is 26.9 µM; in test [2], 16.9 µM; in test [3] (drug-sensitive wild-type cell lines HCT116(p53+/+), U87.MG, MDA-MB-231-pcDNA, HEK293), 16.5 to 22.3 µM; in [3] (drug-sensitive wild-type cell lines incl. CCRF-CEM (abstract)), 9.87 to 22.3 µM; with drug-resistant sublines, 11.2 to 33.8 µM; in test [5] (Homo sapiens, HCT-116, HCT116(p53-/-), resazurin assay, 72 h), 11.2 µM. Besides, the IC50 in [6] is 9.87 µM; in test [7] it was 21.7 µM; in the test with U87.MGΔEGFR cells, 33.8 µM; in test [9] it was 12.8 µM. Besides, in the test on CCRF-CEM cells [4] (0.5-, 1-, 2- or 4-fold IC50, 1 h, dose-dependent), the “ROS production, fold changes” value is listed as ≥ 1.5 fold. Moreover, the “ROS generation compared with positive controls” value with CCRF-CEM cells [4] (1 h, vs doxorubicin (1 μM) or H2O2 (250 μM)) is recorded as “even higher ROS generation than doxorubicin”. Moreover, the “degree of resistance (collateral sensitivity)” value in [5] (HCT116 (p53-/-) knockout cells vs HCT116 (p53+/+)) turned out to be 0.68 fold. The “apoptotic or necrotic cell death” value with CCRF-CEM cells [8] (2- or 4-fold IC50, 96 h) is “early and late apoptosis as well as early and late necrosis”; in the test on CCRF-CEM cells [8] (4-fold IC50, 72 h) it was “early and late apoptosis as well as early and late necrosis”.
